Reference: US20220281848A1, “PYRAZOLE-SUBSTITUTED PYRROLIDINONES AS HERBICIDES” (FMC Corporation, priority 2019, published 2022)

Tested on: plants
Test: Test D pre-emergence, other plants of Tables D1 and D3
Type: in vivo
Settings: preemergent, 20 DAA
Summary of the method: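 Seeds treated with herbicide safener; sown in soil; glasshouse, 16 h light, 65% humidity. Sprayed day 1 (pre) or ~day 12 (post). Spray in 0.2% v/v adjuvant. Scored 0–100 damage: 20 DAA pre, 15 d post.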

CN1CC(c2cc(C(F)(F)F)n(C)n2)C(C(=O)Nc2ccc(F)nc2F)C1=O (racemic) [Compound 22]
80: damage to plant (100=total damage to plant; 0=no damage to plant), BRAPL (rate 130) | damage to plant (100=total damage to plant; 0=no damage to plant), DIGSA (rate 60) | damage to plant (100=total damage to plant; 0=no damage to plant), DIGSA (rate 130) | damage to plant (100=total damage to plant; 0=no damage to plant), ECHCG (rate 130)
90: damage to plant (100=total damage to plant; 0=no damage to plant), BRAPL (rate 250) | damage to plant (100=total damage to plant; 0=no damage to plant), BRAPL (rate 500) | damage to plant (100=total damage to plant; 0=no damage to plant), ECHCG (rate 250) | damage to plant (100=total damage to plant; 0=no damage to plant), SETFA (rate 500)
20: damage to plant (100=total damage to plant; 0=no damage to plant), BRAPL (rate 30) | damage to plant (100=total damage to plant; 0=no damage to plant), DIGSA (rate 30)
70: damage to plant (100=total damage to plant; 0=no damage to plant), BRAPL (rate 60)
100: damage to plant (100=total damage to plant; 0=no damage to plant), DIGSA (rate 250) | damage to plant (100=total damage to plant; 0=no damage to plant), DIGSA (rate 500) | damage to plant (100=total damage to plant; 0=no damage to plant), ECHCG (rate 500)
60: damage to plant (100=total damage to plant; 0=no damage to plant), ECHCG (rate 60) | damage to plant (100=total damage to plant; 0=no damage to plant), SETFA (rate 250)
0: damage to plant (100=total damage to plant; 0=no damage to plant), ABUTH (rate 15) | damage to plant (100=total damage to plant; 0=no damage to plant), ABUTH (rate 30) | damage to plant (100=total damage to plant; 0=no damage to plant), ABUTH (rate 60) | damage to plant (100=total damage to plant; 0=no damage to plant), ABUTH (rate 130) | damage to plant (100=total damage to plant; 0=no damage to plant), ABUTH (rate 250) | damage to plant (100=total damage to plant; 0=no damage to plant), ABUTH (rate 500) | damage to plant (100=total damage to plant; 0=no damage to plant), AMARE (rate 15) | damage to plant (100=total damage to plant; 0=no damage to plant), AMARE (rate 30) | damage to plant (100=total damage to plant; 0=no damage to plant), AMARE (rate 60) | damage to plant (100=total damage to plant; 0=no damage to plant), AMARE (rate 130) | damage to plant (100=total damage to plant; 0=no damage to plant), AMARE (rate 250) | damage to plant (100=total damage to plant; 0=no damage to plant), AMARE (rate 500) | damage to plant (100=total damage to plant; 0=no damage to plant), BIDPI (rate 15) | damage to plant (100=total damage to plant; 0=no damage to plant), BIDPI (rate 30) | damage to plant (100=total damage to plant; 0=no damage to plant), BIDPI (rate 60) | damage to plant (100=total damage to plant; 0=no damage to plant), BIDPI (rate 130) | damage to plant (100=total damage to plant; 0=no damage to plant), BIDPI (rate 250) | damage to plant (100=total damage to plant; 0=no damage to plant), BIDPI (rate 500) | damage to plant (100=total damage to plant; 0=no damage to plant), BRAPL (rate 15) | damage to plant (100=total damage to plant; 0=no damage to plant), CYPES (rate 15) | damage to plant (100=total damage to plant; 0=no damage to plant), CYPES (rate 30) | damage to plant (100=total damage to plant; 0=no damage to plant), CYPES (rate 60) | damage to plant (100=total damage to plant; 0=no damage to plant), CYPES (rate 130) | damage to plant (100=total damage to plant; 0=no damage to plant), CYPES (rate 250) | damage to plant (100=total damage to plant; 0=no damage to plant), CYPES (rate 500) | damage to plant (100=total damage to plant; 0=no damage to plant), DIGSA (rate 15) | damage to plant (100=total damage to plant; 0=no damage to plant), ECHCG (rate 15) | damage to plant (100=total damage to plant; 0=no damage to plant), ECHCG (rate 30) | damage to plant (100=total damage to plant; 0=no damage to plant), ELEIN (rate 15) | damage to plant (100=total damage to plant; 0=no damage to plant), ELEIN (rate 30) | damage to plant (100=total damage to plant; 0=no damage to plant), ELEIN (rate 60) | damage to plant (100=total damage to plant; 0=no damage to plant), ELEIN (rate 130) | damage to plant (100=total damage to plant; 0=no damage to plant), ELEIN (rate 250) | damage to plant (100=total damage to plant; 0=no damage to plant), ELEIN (rate 500) | damage to plant (100=total damage to plant; 0=no damage to plant), EPHHL (rate 15) | damage to plant (100=total damage to plant; 0=no damage to plant), EPHHL (rate 30) | damage to plant (100=total damage to plant; 0=no damage to plant), EPHHL (rate 60) | damage to plant (100=total damage to plant; 0=no damage to plant), EPHHL (rate 130) | damage to plant (100=total damage to plant; 0=no damage to plant), EPHHL (rate 250) | damage to plant (100=total damage to plant; 0=no damage to plant), EPHHL (rate 500) | damage to plant (100=total damage to plant; 0=no damage to plant), GLXMA (rate 15) | damage to plant (100=total damage to plant; 0=no damage to plant), GLXMA (rate 30) | damage to plant (100=total damage to plant; 0=no damage to plant), GLXMA (rate 60) | damage to plant (100=total damage to plant; 0=no damage to plant), GLXMA (rate 130) | damage to plant (100=total damage to plant; 0=no damage to plant), GLXMA (rate 250) | damage to plant (100=total damage to plant; 0=no damage to plant), GLXMA (rate 500) | damage to plant (100=total damage to plant; 0=no damage to plant), IPOHE (rate 15) | damage to plant (100=total damage to plant; 0=no damage to plant), IPOHE (rate 30) | damage to plant (100=total damage to plant; 0=no damage to plant), IPOHE (rate 60) | damage to plant (100=total damage to plant; 0=no damage to plant), IPOHE (rate 130) | damage to plant (100=total damage to plant; 0=no damage to plant), IPOHE (rate 250) | damage to plant (100=total damage to plant; 0=no damage to plant), IPOHE (rate 500) | damage to plant (100=total damage to plant; 0=no damage to plant), ORYSA (rate 15) | damage to plant (100=total damage to plant; 0=no damage to plant), ORYSA (rate 30) | damage to plant (100=total damage to plant; 0=no damage to plant), ORYSA (rate 60) | damage to plant (100=total damage to plant; 0=no damage to plant), ORYSA (rate 130) | damage to plant (100=total damage to plant; 0=no damage to plant), ORYSA (rate 250) | damage to plant (100=total damage to plant; 0=no damage to plant), ORYSA (rate 500) | damage to plant (100=total damage to plant; 0=no damage to plant), PANMI (rate 15) | damage to plant (100=total damage to plant; 0=no damage to plant), PANMI (rate 30) | damage to plant (100=total damage to plant; 0=no damage to plant), PANMI (rate 60) | damage to plant (100=total damage to plant; 0=no damage to plant), PANMI (rate 130) | damage to plant (100=total damage to plant; 0=no damage to plant), PANMI (rate 250) | damage to plant (100=total damage to plant; 0=no damage to plant), PANMI (rate 500) | damage to plant (100=total damage to plant; 0=no damage to plant), SETFA (rate 15) | damage to plant (100=total damage to plant; 0=no damage to plant), SETFA (rate 30) | damage to plant (100=total damage to plant; 0=no damage to plant), SETFA (rate 60) | damage to plant (100=total damage to plant; 0=no damage to plant), SORVU (rate 15) | damage to plant (100=total damage to plant; 0=no damage to plant), SORVU (rate 30) | damage to plant (100=total damage to plant; 0=no damage to plant), SORVU (rate 60) | damage to plant (100=total damage to plant; 0=no damage to plant), SORVU (rate 130) | damage to plant (100=total damage to plant; 0=no damage to plant), SORVU (rate 250) | damage to plant (100=total damage to plant; 0=no damage to plant), SORVU (rate 500)
30: damage to plant (100=total damage to plant; 0=no damage to plant), SETFA (rate 130)
